This is an account of results in publication PMC12125541, “Timed chromatin invasion during mitosis governs prototype foamy virus integration site selection and infectivity” (Nucleic Acids Research, 2025).

* marks the point of attachment. Biotin = O=C1N[C@H]2[C@H](CS[C@H]2CCCCC(=O)*)N1

The test system of assay [1] is NCP saturated with H4 tails (H2A–H2B acidic patch). Description: BLI competition: immobilized Gag CBS peptides versus NCP saturated with H4 tails. Format: binding, human. To be noted: mean of two experiments; for binding to NCP saturated with WT H4 tail: 100 nM NCP pre-incubated with 100 μM H4 WT peptide at least 30 min at room temperature. How it is done: Quantitative interaction experiments were performed by biolayer interferometry (BLI), using a BLItz instrument (Octet® N1; Sartorius). Two different runs were performed: the first one, into water, to coat biosensors with biotinylated peptides (Table 1) and the second, into Blitz buffer [1× phosphate buffer saline, pH 7.4, 0.02% (v/v) Tween 20, 0.1% (w/v) BSA], to fix NCPs on immobilized peptides. All steps were performed under 2200 rpm shaking speed. Streptavidin biosensors (Octet®SA Biosensors; Reference 18-0009; Sartorius) were first pre-wet for at least 10 min with water. The baseline, with only water, was measured for 60 s. Ten micromolar Gag CBS biotinylated peptides (or H4 biotinylated peptides), diluted in water, were loaded onto the biosensors, for 180 s, to reach a binding of ∼1.5 nm, followed by a dissociation step of 180 s. Following the first run, coated biosensors were equilibrated for at least 10 min in Blitz buffer. The second run started with 60 s of baseline, followed by the association step, where biosensors were dipped into serial dilutions of NCPs (10, 25, 50, or 100 nM), for 300 s. Finally, the dissociation step was performed in Blitz buffer, for 300 s. For competition experiments, the second run started with 60 s of baseline in Blitz buffer, followed by 300 s of association step. During this step, solutions of 100 nM of NCPs were pre-incubated with or without 100 μM of H4 peptide [wild type (WT) or mutant, non-biotinylated], in Blitz buffer, for at least 30 min at room temperature. Finally, the dissociation step was performed in Blitz buffer, for 180 s. Nonspecific binding controls were performed, such as binding of 100 nM of NCPs on biosensors without biotinylated peptides loaded, as well as binding of Blitz buffer on loaded biosensors. For each time point measured, data of this second control (binding of Blitz buffer on biosensors loaded with biotinylated Gag WT peptide) were subtracted to every condition and were plotted on curves, using Prism 9 software.

Assay [2] deals with recombinant NCPs. Description: Streptavidin pull-down of recombinant nucleosomes with biotinylated Gag CBS peptides. The conditions noted are these: 2 h at 4°C; for pull-down of nucleosomes: 75–150 mM NaCl, 1.5 μg biotinylated peptide, 3 μg NCP, Coomassie gel. Format: binding, human. An excerpt:
Recombinant nucleosome core particles (NCPs) (mono-nucleosomes) were assembled as previously described. Briefly, individual human histones H2A, H2B, H3, and H4 were purchased (The Histone Source; Colorado State University) and octamers were assembled by dialysis. The Widom-601 DNA [25] was generated by restriction enzyme digestion of a concatenated construct and purified by anion exchange chromatography onto a POROS-HQ column. NCPs were assembled with a ratio 1.1:1 (1.1 octamer:1 DNA) by successive steps of salt dialysis against TEN buffer (0–2 M NaCl, 10 mM Tris, pH 7.5, 1 mM ethylenediaminetetraacetic acid, 1 mM Dithiothreitol (DTT)). NCPs were kept at −80°C in 0 mM NaCl TEN buffer.
Twenty microliters of streptavidin beads (Dynabeads™ MyOne™ Streptavidin T1; Invitrogen; Thermo Fisher Scientific) were used per condition. StreptaBeads were washed twice with pull-down buffer (20 mM Tris–HCl, pH 7.5, 0.1% NP-40, 10% glycerol, 75–150 mM NaCl, 0.5 mM DTT, and 1 mM Phenylmethylsulfonyl fluoride (PMSF)) containing 75 mM of NaCl and 100 μg of bovine serum albumin (BSA), followed by one wash in the same conditions, without BSA. 1.5 μg of Gag CBS (chromatin binding site) biotinylated peptide and 3 μg of recombinant NCPs were added per condition, in a final volume of 800 μl of pull-down buffer with corresponding NaCl concentrations. The reaction mix was incubated for 2 h on a rotation wheel, at 4°C. Beads were washed three times with the corresponding NaCl concentration buffer, and bound proteins were eluted by the addition of 10 μl of SDS Sample Buffer 2.5×. Samples were separated by sodium dodecyl sulfate–polyacrylamide gel electrophoresis, and analyzed after colloidal Coomassie blue staining.

Assay [3] relates to recombinant NCPs. Description: BLI of immobilized biotinylated peptides with recombinant NCP. Type of assay: binding, human. To be noted: for BLI interaction with nucleosomes: peptide on streptavidin biosensor, NCP 10, 25, 50 or 100 nM, 1× PBS pH 7.4, 0.02% Tween 20, 0.1% BSA, representative of three experiments.
Source text: Recombinant nucleosome core particles (NCPs) (mono-nucleosomes) were assembled as previously described [13]. Briefly, individual human histones H2A, H2B, H3, and H4 were purchased (The Histone Source; Colorado State University) and octamers were assembled by dialysis. The Widom-601 DNA [25] was generated by restriction enzyme digestion of a concatenated construct and purified by anion exchange chromatography onto a POROS-HQ column. NCPs were assembled with a ratio 1.1:1 (1.1 octamer:1 DNA) by successive steps of salt dialysis against TEN buffer (0–2 M NaCl, 10 mM Tris, pH 7.5, 1 mM ethylenediaminetetraacetic acid, 1 mM Dithiothreitol (DTT)). NCPs were kept at −80°C in 0 mM NaCl TEN buffer.
Quantitative interaction experiments were performed by biolayer interferometry (BLI), using a BLItz instrument (Octet® N1; Sartorius). Two different runs were performed: the first one, into water, to coat biosensors with biotinylated peptides (Table 1) and the second, into Blitz buffer [1× phosphate buffer saline, pH 7.4, 0.02% (v/v) Tween 20, 0.1% (w/v) BSA], to fix NCPs on immobilized peptides. All steps were performed under 2200 rpm shaking speed. Streptavidin biosensors (Octet®SA Biosensors; Reference 18-0009; Sartorius) were first pre-wet for at least 10 min with water. The baseline, with only water, was measured for 60 s. Ten micromolar Gag CBS biotinylated peptides (or H4 biotinylated peptides), diluted in water, were loaded onto the biosensors, for 180 s, to reach a binding of ∼1.5 nm, followed by a dissociation step of 180 s. Following the first run, coated biosensors were equilibrated for at least 10 min in Blitz buffer. The second run started with 60 s of baseline, followed by the association step, where biosensors were dipped into serial dilutions of NCPs (10, 25, 50, or 100 nM), for 300 s. […] For each time point measured, data of this second control (binding of Blitz buffer on biosensors loaded with biotinylated Gag WT peptide) were subtracted to every condition and were plotted on curves, using Prism 9 software.
In assay [4] the target is Gag Y537Q biotinylated peptide (PFV Gag CBS Y537Q) (prototype foamy virus (PFV)). In words: BLI; biotinylated Gag CBS peptides on streptavidin biosensors; NCP 10, 25, 50 or 100 nM in solution; 1× PBS pH 7.4, 0.02% Tween 20, 0.1% BSA; BLItz instrument.

“Biotin-GGQNLRPRTYQPQRYG-OH [Y537Q CBS peptide, Biotinylated PFV Gag CBS peptide with Tyr537Gln substitution]”: in assay [1], the “binding to NCP saturated with WT H4 tail” value is listed as “unable to effectively compete”. The “binding to NCP saturated with H4 mut tail” value in assay [1] (100 nM NCP pre-incubated with 100 μM H4 mut peptide at least 30 min at room temperature) is “unable to effectively compete”. Moreover, the pull-down of nucleosomes result with recombinant NCPs [2] was “affected nucleosome interaction, though largely in a salt-independent manner”.
For the substance “Biotin-GGYNLQPRTYQPQRYG-OH [R540Q CBS peptide, Biotinylated PFV Gag CBS peptide with Arg540Gln substitution]”, in the assay with recombinant NCPs [3], the “BLI interaction with nucleosomes” value is on record as “almost complete reduction”. In assay [1], the “binding to NCP saturated with WT H4 tail” value was “no interaction with the NCP”. Also, in the assay on recombinant NCPs [2] (125–150 mM NaCl), the “pull-down of nucleosomes, physiological salt” value is listed as “virtually eliminated binding”. For the same substance, in the assay on recombinant NCPs [2] (low salt (below 125 mM NaCl)), the “pull-down of nucleosomes, hypotonic conditions” value is reported as “reduced binding”.
Take “Biotin-GGYNLRPRTYQPQRYG-OH [WT CBS peptide]”: the “BLI interaction with nucleosomes” value in the assay on recombinant NCPs [3] was “strongest BLI interaction”. In assay [1], the “binding to NCP saturated with WT H4 tail” value is “reached the same level as without H4 tails”. Moreover, in the assay on recombinant NCPs [2], the pull-down of nucleosomes result is listed as “efficiently pulled down nucleosomes across tested salt concentrations”.
As for “Biotin-SGRGKGGKGLGKGGAKRHAAVLA-OH [H4 mut, reference compound]”, in the assay on recombinant NCPs [3] (BLI, immobilized H4 peptide, Supplementary Fig. S7), the “binding of H4 tail peptide to purified NCPs” value is recorded as “retains some residual binding”.
Turning to “Recombinant nucleosome core particle (human histone octamer on Widom-601 DNA) (from UniProt P04908 1-130; P06899 1-126; P68431 1-136; P62805 1-103) (complex)”, the fold reduction of the BLI interaction against the WT CBS peptide in assay [4] turned out to be 5 fold.
